# Measured values reported in patent publication US20150110814A1, “COMBINATION THERAPIES WITH PSMA LIGAND CONJUGATES” (PSMA Development Company, LLC, priority 2013, published 2015).
# Square brackets hold non-standard residues; d marks the D form. Peptide text beside a SMILES is read from it. * marks the point of attachment. Dolaproine = CO[C@@H]([C@@H]1CCCN1)[C@@H](C)C(=O)O; Dil = CC[C@H](C)[C@H](NC)[C@@H](CC(=O)O)OC; X1 = C[C@@H](N*)[C@@H](O)c1ccccc1; NMeV = CN[C@H](C(=O)O)C(C)C
# Key:
# [1] = system: PSMA expression on C4-2 cells; assay: Flow cytometry of cell-surface PSMA expression; format: cell-based, human; parameters: cell-surface PSMA expression / PSMA expression on treated cells relative to untreated cells: dose or concentration left out as unconfirmed; conditions: for cell-surface PSMA expression: 7 days post-treatment
# Description: (§1) For short-term treatments (≦7 days), cells were plated on 24-well plates (BD Falcon) overnight, at a density of 200,000 cells per 500 μL. The next day, wells were exchanged with 500 μL of fresh media that included inhibitor, and incubated at 37° C. until the indicated time point. For the long-term treatments (>7 days), cells were plated on T-25 flasks (BD Falcon) overnight, at a density of 500,000 cells per flask in 5 mL of media. 5 mL of fresh media with or without treatment was exchanged the next day. On weekly splits thereafter, cells were detached with Cell Dissociation solution (Sigma), washed with fresh media, counted using Vi-CELL XR (Beckman Coulter), and split into two T-25 flasks for continued culture with or without inhibitor. Prior to analysis, cells were detached, counted and suspended in PBS (PBS(−), without Ca/Mg, Life Technologies) containing 0.3% bovine serum albumin (BSA, Sigma) and 0.1% sodium azide (VWR). Cells (100,000 in 100 μL) were placed in round-bottom 96-well plates (Falcon) and incubated for 30 minutes at room temperature with 1 μg/mL of anti-PSMA mAb 3.9 conjugated to phycoerythrin (PE). Cells then were washed twice with 200 μL PBS/BSA/azide buffer and read using a FACSCalibur instrument (BD Biosciences). A mouse IgG2b-PE conjugate of irrelevant specificity (Abcam) was included as an isotype control.
# C4-2 cells = assay: Cell viability assay (CellTiter-Glo, inhibition of proliferation, Bliss synergy); format: cell-based, human; conditions: for activity when combined with PSMA ADC: C4-2 cells (FIG. 8)
# Description: (§2) Cells were plated at a density of 1×10^3 cells in 25 μL in 384-well white-colored microplates (Perkin Elmer) and cultured overnight. The next day, cells were treated with 1 or 2 drugs in a total volume of 50 μL. Cultures were incubated at 37° C. for 7 days. Viability was assessed on days 0 and 7 using CellTiter-Glo (Promega) and an Analyst GT luminescence reader at 560 nm emission (Molecular Devices). The percent inhibition of proliferation was calculated as (Vu−Vt)/(Vu−V0)×100, where Vu, Vt and V0 represent the viability values for untreated cells on day 7, treated cells on day 7, and cells prior to treatment on day 0, respectively. […] Values of >100% reflect cytotoxic compounds or combinations, where Vt<V0.
# (§3) Drug combinations were tested in 3 to 7 independent repeat cell viability assays unless otherwise indicated Inhibition data were fit to a four-parameter logistic equation using GraphPad Prism. […] Bliss differences were calculated by subtracting the predicted value (Fc) from the experimentally observed inhibition. Mean Bliss differences were calculated for each point in a matrix of drug-drug combinations, converted to percentages, and assessed for statistical significance from the null value of zero using two-sided t-tests with a significance level of 0.05. Statistical evaluations were not performed in cases where the fractional growth inhibition exceeded unity, since such values fall outside the Bliss framework. In addition, Bliss differences of less than 5% were considered to be of limited biological relevance and were excluded from synergy considerations.
# LNCaP cells = assay: as above; format: cell-based, human; conditions: for activity when combined with PSMA ADC: LNCaP cells (FIG. 8)
# Description: as §2, §3
# [2] = system: PSMA expression on LNCaP cells; assay: Flow cytometry of cell-surface PSMA expression; format: cell-based, human; conditions: antiandrogens concentrations above 1 mM, 7 days post-treatment
# Description: as §1
# PSMA in C4-2 cells = assay: Western blotting of total PSMA; format: cell-based, human; conditions: 7 days
# Description: (§4) Cells (300,000) were incubated overnight in 6-well plates (BD Falcon) in 4 mL of 10% FBS RPMI1640 media prior to addition of inhibitors. Plates were incubated at 37° C. for an additional 7 days, washed once with 5 mL of cold PBS(−) and placed on ice. Cells were lysed with 130 μL of RIPA Lysis Buffer (Santa Cruz Biotechnology) and then centrifuged at 14,000×g for 10 minutes at 4° C. The supernatant was quantitated for protein concentration using a BCA kit (Pierce/Thermo), resolved under reducing conditions using NuPAGE Novex 4-12% Bis-Tris gels (Life Technologies), and transferred to nitrocellulose using the iBlot 7-Minute Blotting System (Life Technologies). Membranes were blocked using Odyssey Blocking Reagent (LI-COR Biosciences), incubated with primary and secondary antibodies, and visualized using an Odyssey infrared imager (LI-COR Biosciences).
# PSMA in LNCaP cells = assay: Western blotting of total PSMA; format: cell-based, human; conditions: 7 days, serial dilution of lysates
# Description: as §4
# [3] = system: metastatic, castration-resistant prostate cancer (mCRPC); conditions: subjects with mCRPC; cited from earlier work
SMILES,effect on the activity of PSMA ADC (C4-2 cells; C4-2 cells),"single-agent antiproliferative effect (C4-2 cells; C4-2 cells, single agent)","single-agent antiproliferative effect (LNCaP cells; LNCaP cells, single agent)",activity when combined with PSMA ADC (C4-2 cells),activity when combined with PSMA ADC (LNCaP cells),further results
"CO[C@H]1C[C@@H]2CC[C@@H](C)[C@@](O)(O2)C(=O)C(=O)N2CCCC[C@H]2C(=O)O[C@H]([C@H](C)C[C@@H]2CC[C@@H](O)[C@H](OC)C2)CC(=O)[C@H](C)/C=C(\C)[C@@H](O)[C@@H](OC)C(=O)[C@H](C)C[C@H](C)/C=C/C=C/C=C/1C [Rapamycin, rapamycin]",–,–,–,–,–,"increase in PSMA expression ([1]; C4-2, low nanomolar concentrations, 7 days): > 2 fold"
CNC(=O)c1ccc(N2C(=S)N(c3cnc(C#N)c(C(F)(F)F)c3)C(=O)C23CCC3)cc1F [ARN-509],enhanced the activity of PSMA ADC,minimal antiproliferative effects,inhibited proliferation,–,–,–
"CS(=O)(=O)N1CCN(Cc2cc3nc(-c4cccc5[nH]ncc45)nc(N4CCOCC4)c3s2)CC1 [GDC-0941, 2-(1H-indazol-4-yl)-6-(4-methanesulfonyl-piperazin-1-ylmethyl)-4-morpholin-4-yl-t hieno[3,2-d]pyrimidine]",–,–,–,additive to weakly synergistic activity,additive to weakly synergistic activity,–
"CNC(=O)c1ccc(N2C(=S)N(c3ccc(C#N)c(C(F)(F)F)c3)C(=O)C2(C)C)cc1F [Enzalutamide, enzalutamide]",significantly enhanced the activity of PSMA ADC,minimal antiproliferative effects,inhibited proliferation,–,–,"cell-surface PSMA expression [2]: approximately doubled; cell-surface PSMA expression ([1]; C4-2): approximately doubled; cell-surface PSMA expression ([1]; C4-2, listed as enzalutamide): doubled; time for PSMA expression to return to baseline in the absence of drug ([1]; C4-2, after 3 weeks culture in enzalutamide): ≤ 7 days; PSMA expression on treated cells relative to untreated cells ([1]; C4-2, after 21 days): 4 fold; exposure time to maximal PSMA expression ([1]; FIG. 15, cell line not stated in legend): 3 to 4 weeks; PSMA upregulation (Western) (PSMA in C4-2 cells): upregulated PSMA to similar extents; magnitude of increase in PSMA (Western, semi-quantitative) (PSMA in LNCaP cells): approximately 5 fold"
"C[C@]12C=CC(=O)C=C1CC[C@@H]1[C@@H]2C(=O)C[C@@]2(C)[C@H]1CC[C@]2(O)C(=O)CO [Prednisone, prednisone]",–,–,–,additive to weakly synergistic activity,additive to weakly synergistic activity,–
"CO[C@H]1C(=O)[C@]2(C)[C@@H](OC)C[C@H]3OC[C@@]3(OC(C)=O)[C@H]2[C@H](OC(=O)c2ccccc2)[C@]2(O)C[C@H](OC(=O)[C@H](O)[C@@H](NC(=O)OC(C)(C)C)c3ccccc3)C(C)=C1C2(C)C [Jevtana, cabazitaxel]",–,–,–,–,–,survival benefit [3]: 2.4 month
Cc1ccc(C(=O)N(CCCN)[C@@H](c2oc3cc(Cl)ccc3c(=O)c2Cc2ccccc2)C(C)C)cc1 [SB-743921],–,–,–,additive to weakly synergistic activity,additive to weakly synergistic activity,–
"CC[C@H](C)[C@@H]([C@@H](CC(=O)N1CCC[C@H]1[C@H](OC)[C@@H](C)C(=O)N[C@H](C)[C@@H](O)c1ccccc1)OC)N(C)C(=O)[C@@H](NC(=O)[C@@H](NC)C(C)C)C(C)C [MMAE, monomethylauristatin norephedrine] (H-[NMeV]V[Dil][Dolaproine]-X1)",–,–,–,–,–,"activity when paired with enzalutamide or abiraterone (C4-2 cells; C4-2 cells): additive to weakly synergistic activity; IC50 (C4-2 cells; C4-2 cells, single agent, 7 days): ~0.5 nM; activity when paired with enzalutamide or abiraterone (LNCaP cells; LNCaP cells): additive activity; IC50 (LNCaP cells; LNCaP cells, single agent, 7 days): ~0.5 nM"
"C[C@]12CC[C@H](O)CC1=CC[C@@H]1[C@@H]2CC[C@]2(C)C(n3cnc4ccccc43)=CC[C@@H]12 [TOK-001, galeterone]",enhanced the activity of PSMA ADC,minimal antiproliferative effects,inhibited proliferation,–,–,–
NC1(c2ccc(-c3nc4ccn5c(=O)[nH]nc5c4cc3-c3ccccc3)cc2)CCC1 [MK-2206],–,–,–,additive to weakly synergistic activity,additive to weakly synergistic activity,–
